Measured values taken from patent US8314140B2, “4-hydroxythiobenzamide derivatives of drugs” (Antibe Therapeutics Inc., priority 2006, dated 2012).

Columns and labels:
[1] = H2S generation in buffer and liver homogenate (Example 15); format: in vitro ADME, rat; details: for H2S generation in buffer: buffer pH 7.4, 37° C.
Procedure: (Compound XXVII) was tested for H2S generation under three different conditions. Concentrations of H2S that were generated within 1 hour from 1 mM concentrations of L-cysteine, 4-HBT (4-hydroxythiobenzamide) and 5-amino-2-(4-thiocarbamoyl-phenoxycarbonyloxy)-benzoic acid were measured. H2S release was tested under three conditions: (i) when the compound was in buffer, (ii) when the compound was in a liver homogenate, and (iii) when the compound was in the liver homogenate together with an inhibitor of cystathionine γ-lyase (PAG=DL-propargylglycine; 2 mM). Results are shown in FIG. 6. *p<0.05 compared to the release from the vehicle group. ^ψp>0.05 versus the corresponding ‘homogenate’ group. The enzymatic capacity for H2S production was determined using the same reactor as described previously (Khan et al. (1980) Microchem J 25: 388-395, incorporated herein by reference). Two ml of an assay reaction mixture was introduced in the reactor. The mixture contained 1 mM L-cysteine (or compound), 2 mM pyridoxal 5′-phosphate, 100 mM potassium phosphate buffer (pH=7.4). A constant stream of nitrogen was passed through the mixture via gas-inlet capillary. Reactions were initiated by transferring the tubes from ice bath to a 37° C. water bath. The stream of nitrogen carried the sulfide acid in the second reactor containing 4 ml of sulfide anti-oxidant buffer (SAOB) solution, consisting of 2M KOH, 1M salicylic acid and 0.22M ascorbic acid at pH 12.8[5]. After incubating at 37° C. for 90 minutes, 1 ml of 10% trichloroacetic acid solution was added to mixture to stop the reaction. The remainder H2S in the mixture was carried out via nitrogen stream by other 60 minutes of incubation at 37° C. The concentration of sulfide in SAOB solution was measured with a sulfide sensitive electrode (Model 9616 S^2−/Ag^+ electrode, Orion Research, Beverly, Mass., USA). For studies in which the test compounds were incubated in liver homogenate, 100-150 mg of isolated rat livers were homogenized in 1 ml of ice-cold T-PER protein extractor. The homogenates were added to the reaction mixture at a concentration of 10% (wt/vol). DL-propargylglycine 2 mM was incubated with liver homogenates for 5 min at 37° C. prior the enzyme reaction. Khan, S. U. Morris, G. F. and Hidiroglou, M. (1980) Rapid estimation of sulfide in rumen and blood with a sulfide-specific ion electrode. Microchem J. 25:388-395, incorporated herein by reference.

COX-1 = molecular target: T1, COX-1 (Rattus norvegicus, UniProt Q63921); assay: Whole blood thromboxane B2 synthesis in treated rats; format: in vivo; details: same rats as FIG. 12/13
T1 construct: whole blood thromboxane synthesis, which occurs via COX-1; from tissue; host or cells: rat whole blood, ex vivo after oral dosing
T1 sequence (Q63921 27-602): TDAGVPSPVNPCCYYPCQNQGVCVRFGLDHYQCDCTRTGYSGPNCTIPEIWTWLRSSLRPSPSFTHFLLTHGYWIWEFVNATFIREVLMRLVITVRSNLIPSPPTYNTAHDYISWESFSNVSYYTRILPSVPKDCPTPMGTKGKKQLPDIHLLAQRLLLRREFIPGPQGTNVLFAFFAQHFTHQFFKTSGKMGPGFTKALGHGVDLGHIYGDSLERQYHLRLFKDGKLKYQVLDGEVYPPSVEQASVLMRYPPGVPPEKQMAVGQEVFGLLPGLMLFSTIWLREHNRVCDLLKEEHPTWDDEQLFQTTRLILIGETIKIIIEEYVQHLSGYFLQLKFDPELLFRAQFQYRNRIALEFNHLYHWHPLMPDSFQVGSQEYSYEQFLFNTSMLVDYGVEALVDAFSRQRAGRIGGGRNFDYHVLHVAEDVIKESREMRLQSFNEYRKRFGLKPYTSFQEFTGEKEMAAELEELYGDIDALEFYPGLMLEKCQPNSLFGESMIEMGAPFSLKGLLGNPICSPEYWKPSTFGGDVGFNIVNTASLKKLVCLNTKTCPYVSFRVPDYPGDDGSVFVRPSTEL
Procedure: Inhibition of COX-1 was also measured using the same rats. […] The samples were then centrifuged for 3 min at 9,000 g and the supernatant was frozen at −80° C. for subsequent measurement of thromboxane B2 concentrations using a specific ELISA.
Inhibition of COX-1 was also measured using the same rats, using the same method as described for FIG. 11.

visceral pain perception = assay: Rat model of visceral pain perception (colorectal distension, AWR score); format: in vivo; details: 0.8 mL colorectal distention; for pain perception score: 100 mg/kg i.p., FIG. 3, FIG. 4
Procedure: A rat model of visceral pain perception, a pre-clinical model of irritable bowel syndrome, was used in the following example. Rats (male, Wistar, 200-250 g, obtained from Charles River, Monza, Italy), were housed in plastic cages and maintained under controlled conditions with 12-hours light/dark cycle with lights on at 7.00 AM. Tap water and standard laboratory chow were freely available. Before experiments, rats were individually trained by spending 2-3 hours per day in a plexiglass cage for 2-3 days. It allowed them to adjust to a movement-restriction environment. Food was withheld for 12 hours before colorectal distension (CRD) recording were performed. Experiments were performed in awake rats and were conducted in a blind manner in that the observer was not aware of the identity of drug administered to each animal.
In the testing day, rats were sedated with ether inhalation and a 2 cm long latex balloon was inserted intrarectally 2 cm from the anal verge and fixed at the base of the tail. The balloon was connected via a double-barreled cannula to a pressure transducer to continuously monitoring the rectal pressure by a computer (PowerLab PC, A.D. Instruments, Milford, Mass., USA) and to a syringe for inflation/deflation of the balloon. The rats were then housed in a small cage (20×8×8 cm) on an elevated Plexiglas™ platform and allowed to wake up and adapt for 1 hour. After recovery from sedation, animals underwent the CRD procedure and behavioral responses were tested. The night before the experiments, the balloons were inflated and left overnight so the latex stretched and the balloons became compliant.
CRD of 20 seconds, performed every 5 minutes, was applied in increment of 0.4 ml starting from 0.4 ml up to 1.6 ml water. To achieve an accurate measurement of the colonic parameters and perception, the distensions were repeated twice for each intensity and data for each animal were averaged for analysis. Each animal underwent a double set of CRD. Twenty minutes after the first sequence of CRD (0.4 mL-1.6 ml water), drugs were administered intraperitoneally (i.p.) and a second set of CRD was performed. Behavioral responses during the first and the second set of CRD were assessed and compared.
Behavioral response to CRD was assessed by measuring the abdominal withdrawal reflex (AWR) using a semiquantitative score (1).
A rat model of visceral pain perception as described above was used to compare pain perception scores for 5-amino-2-(4-thiocarbamoyl-phenoxycarbonyloxy)-benzoic acid (Compound XXVII) with or without glibenclamide, an inhibitor of ATP-sensitive K^+ (KATP) channels.
Experiments were carried out as described in Example 13, except that groups of 5 rats each were treated with vehicle, trimebutine maleate (10 mg/kg), or with equimolar doses of trimebutine thiocarbamoylbenzoate (Compound III) or thiocarbamolybenzoate alone.

Row | Molecule | H2S generation in buffer ([1]; 1 mM compound, FIG. 6) | COX-1 activity (whole blood thromboxane synthesis) (COX-1) | pain perception score (visceral pain perception) | H2S generation in liver homogenate ([1]; 1 mM compound, 10% rat liver homogenate, FIG. 6) | H2S generation in liver homogenate with PAG ([1]; 1 mM compound, liver homogenate plus DL-propargylglycine 2 mM, FIG. 6) | concentration of H2S produced ([1]; 1 mM of the compound) | pain perception score after glibenclamide pretreatment (visceral pain perception; glibenclamide 10 mg/kg i.p. 30 min before, FIG. 3)
1 | NC(=S)c1ccc(O)cc1 [4-hydroxythiobenzamide] | did not release significant H2S | did not significantly affect COX-1 activity | did not have a significant effect on pain perception | – | – | – | –
2 | 5-amino-2-(4-thiocarbamoyl-phenoxycarbonyloxy)-benzoic acid [Compound XXVII] | releases H2S spontaneously | – | significantly reduced the pain perception | greater when in the presence of tissue | lack of effect | 10 to 20 µM | reversed by pretreatment with glibenclamide
